Data published in US20230017045A1, “PYRIDINE AND PYRIMIDINE CARBOXYLATE HERBICIDES AND METHODS OF USE THEREOF” (Dow AgroSciences LLC, priority 2017, published 2023).

These compounds were tested on test plant species (assay: Post-emergent herbicidal activity test (greenhouse, foliar spray, visual growth reduction)). Details: post-emergence, 336 h, ECHCG: barnyardgrass (Echinochloa crus-galli), 140 g ai/ha, 14 days after application, read-out: Visual Growth Reduction (%) 14 Days After Application, ECHCG.
Format: in vivo
Outline: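 Visual scoring 14 d after treatment (0 = no injury, 100 = complete control) against nontreated and solvent-blank plants gave percent growth reduction. Foliar application used a track sprayer delivering 187 L/ha to seedlings at first or second true leaf stage, grown at 23–29 °C day, ~15 h photoperiod.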
COC(=O)c1nc(-c2ccc(Cl)c(C(C)F)c2Cl)ccc1Cl (stereo not drawn) [F282, Methyl 3-chloro-6-(2,4-dichloro-3-(1-fluoroethyl)phenyl) picolinate] gave a pest or weed control at 140 g/ha of 0 to 29%. Work on COC(=O)c1nc(-c2ccc(C(F)(F)F)cc2C)c(F)cc1F [F376, Methyl 3,5-difluoro-6-(2-methyl-4-(trifluoromethyl)phenyl)picolinate] yielded a pest or weed control at 140 g/ha of 0 to 29%. Work on O=C(O)c1nc(-c2cccc3c2OC(F)(F)O3)ccc1Cl [F255, 3-Chloro-6-(2,2-difluorobenzo[d][1,3]dioxol-4-yl)picolinic acid] yielded a pest or weed control at 140 g/ha of 0 to 29%.

Same assay, conditions: post-emergence, 336 h, IPOHE: ivy-leaf morning glory (Ipomoea hederacea), 140 g ai/ha, 14 days after application, read-out: Visual Growth Reduction (%) 14 Days After Application, IPOHE
COC(=O)c1nc(-c2ccc(Cl)c(C(C)F)c2Cl)ccc1Cl (stereo not drawn) [F282, Methyl 3-chloro-6-(2,4-dichloro-3-(1-fluoroethyl)phenyl) picolinate] showed a pest or weed control at 140 g/ha of 45 to 59%. COC(=O)c1nc(-c2ccc(C(F)(F)F)cc2C)c(F)cc1F [F376, Methyl 3,5-difluoro-6-(2-methyl-4-(trifluoromethyl)phenyl)picolinate] was tested, and the pest or weed control at 140 g/ha was 95 to 100%. In the case of O=C(O)c1nc(-c2cccc3c2OC(F)(F)O3)ccc1Cl [F255, 3-Chloro-6-(2,2-difluorobenzo[d][1,3]dioxol-4-yl)picolinic acid], the pest or weed control at 140 g/ha is reported as 0 to 29%.

Same assay, conditions: post-emergence, 336 h, KCHSC: kochia (Bassia scoparia), 140 g ai/ha, 14 days after application, read-out: Visual Growth Reduction (%) 14 Days After Application, KCHSC
Work on COC(=O)c1nc(-c2ccc(Cl)c(C(C)F)c2Cl)ccc1Cl (stereo not drawn) [F282, Methyl 3-chloro-6-(2,4-dichloro-3-(1-fluoroethyl)phenyl) picolinate] yielded a pest or weed control at 140 g/ha of 0 to 29%. For COC(=O)c1nc(-c2ccc(C(F)(F)F)cc2C)c(F)cc1F [F376, Methyl 3,5-difluoro-6-(2-methyl-4-(trifluoromethyl)phenyl)picolinate], the pest or weed control at 140 g/ha was 45 to 59%. O=C(O)c1nc(-c2cccc3c2OC(F)(F)O3)ccc1Cl [F255, 3-Chloro-6-(2,2-difluorobenzo[d][1,3]dioxol-4-yl)picolinic acid] was tested, and the pest or weed control at 140 g/ha was 0 to 29%.

Same assay, conditions: post-emergence, 336 h, ORYSA: rice (Oryza sativa), 140 g ai/ha, 14 days after application, read-out: Visual Growth Reduction (%) 14 Days After Application, ORYSA
Work on COC(=O)c1nc(-c2ccc(Cl)c(C(C)F)c2Cl)ccc1Cl (stereo not drawn) [F282, Methyl 3-chloro-6-(2,4-dichloro-3-(1-fluoroethyl)phenyl) picolinate] yielded a pest or weed control at 140 g/ha of 0 to 29%. With COC(=O)c1nc(-c2ccc(C(F)(F)F)cc2C)c(F)cc1F [F376, Methyl 3,5-difluoro-6-(2-methyl-4-(trifluoromethyl)phenyl)picolinate] the pest or weed control at 140 g/ha was 0 to 29%. With O=C(O)c1nc(-c2cccc3c2OC(F)(F)O3)ccc1Cl [F255, 3-Chloro-6-(2,2-difluorobenzo[d][1,3]dioxol-4-yl)picolinic acid] the pest or weed control at 140 g/ha was 0 to 29%.

Same assay, conditions: post-emergence, 336 h, SETFA: giant foxtail (Setaria faberi), 140 g ai/ha, 14 days after application, read-out: Visual Growth Reduction (%) 14 Days After Application, SETFA
For COC(=O)c1nc(-c2ccc(Cl)c(C(C)F)c2Cl)ccc1Cl (stereo not drawn) [F282, Methyl 3-chloro-6-(2,4-dichloro-3-(1-fluoroethyl)phenyl) picolinate], the pest or weed control at 140 g/ha was 0 to 29%. In the case of COC(=O)c1nc(-c2ccc(C(F)(F)F)cc2C)c(F)cc1F [F376, Methyl 3,5-difluoro-6-(2-methyl-4-(trifluoromethyl)phenyl)picolinate], the pest or weed control at 140 g/ha is reported as 60 to 74%. With O=C(O)c1nc(-c2cccc3c2OC(F)(F)O3)ccc1Cl [F255, 3-Chloro-6-(2,2-difluorobenzo[d][1,3]dioxol-4-yl)picolinic acid] the pest or weed control at 140 g/ha was 0 to 29%.

Same assay, conditions: post-emergence, 336 h, SORVU: grain sorghum (Sorghum vulgare), 140 g ai/ha, 14 days after application, read-out: Visual Growth Reduction (%) 14 Days After Application, SORVU
COC(=O)c1nc(-c2ccc(Cl)c(C(C)F)c2Cl)ccc1Cl (stereo not drawn) [F282, Methyl 3-chloro-6-(2,4-dichloro-3-(1-fluoroethyl)phenyl) picolinate] showed a pest or weed control at 140 g/ha of 0 to 29%. Compound COC(=O)c1nc(-c2ccc(C(F)(F)F)cc2C)c(F)cc1F [F376, Methyl 3,5-difluoro-6-(2-methyl-4-(trifluoromethyl)phenyl)picolinate] has a pest or weed control at 140 g/ha of 85 to 94%. O=C(O)c1nc(-c2cccc3c2OC(F)(F)O3)ccc1Cl [F255, 3-Chloro-6-(2,2-difluorobenzo[d][1,3]dioxol-4-yl)picolinic acid] showed a pest or weed control at 140 g/ha of 0 to 29%.

Same assay, conditions: post-emergence, 336 h, STEME: common chickweed (Stellaria media), 140 g ai/ha, 14 days after application, read-out: Visual Growth Reduction (%) 14 Days After Application, STEME
With COC(=O)c1nc(-c2ccc(Cl)c(C(C)F)c2Cl)ccc1Cl (stereo not drawn) [F282, Methyl 3-chloro-6-(2,4-dichloro-3-(1-fluoroethyl)phenyl) picolinate] the pest or weed control at 140 g/ha was 0 to 29%. COC(=O)c1nc(-c2ccc(C(F)(F)F)cc2C)c(F)cc1F [F376, Methyl 3,5-difluoro-6-(2-methyl-4-(trifluoromethyl)phenyl)picolinate] gave a pest or weed control at 140 g/ha of 0 to 29%. With O=C(O)c1nc(-c2cccc3c2OC(F)(F)O3)ccc1Cl [F255, 3-Chloro-6-(2,2-difluorobenzo[d][1,3]dioxol-4-yl)picolinic acid] the pest or weed control at 140 g/ha was 0 to 29%.

Same assay, conditions: post-emergence, 336 h, TRZAS: wheat, spring (Triticum aestivum), 140 g ai/ha, 14 days after application, read-out: Visual Growth Reduction (%) 14 Days After Application, TRZAS
Work on COC(=O)c1nc(-c2ccc(Cl)c(C(C)F)c2Cl)ccc1Cl (stereo not drawn) [F282, Methyl 3-chloro-6-(2,4-dichloro-3-(1-fluoroethyl)phenyl) picolinate] yielded a pest or weed control at 140 g/ha of 0 to 29%. COC(=O)c1nc(-c2ccc(C(F)(F)F)cc2C)c(F)cc1F [F376, Methyl 3,5-difluoro-6-(2-methyl-4-(trifluoromethyl)phenyl)picolinate] showed a pest or weed control at 140 g/ha of 0 to 29%. For O=C(O)c1nc(-c2cccc3c2OC(F)(F)O3)ccc1Cl [F255, 3-Chloro-6-(2,2-difluorobenzo[d][1,3]dioxol-4-yl)picolinic acid], the pest or weed control at 140 g/ha was 0 to 29%.

Same assay, conditions: post-emergence, 336 h, blackgrass (Alopecurus myosuroides), 14 Days After Application, 140 g ai/ha, read-out: Visual Growth Reduction (%) ALOMY
Compound COC(=O)c1nc(-c2ccc(Cl)c(C(C)F)c2Cl)ccc1Cl (stereo not drawn) [F282, Methyl 3-chloro-6-(2,4-dichloro-3-(1-fluoroethyl)phenyl) picolinate] has a pest or weed control at 140 g/ha of 0 to 29%. Compound COC(=O)c1nc(-c2ccc(C(F)(F)F)cc2C)c(F)cc1F [F376, Methyl 3,5-difluoro-6-(2-methyl-4-(trifluoromethyl)phenyl)picolinate] has a pest or weed control at 140 g/ha of 0 to 29%. For O=C(O)c1nc(-c2cccc3c2OC(F)(F)O3)ccc1Cl [F255, 3-Chloro-6-(2,2-difluorobenzo[d][1,3]dioxol-4-yl)picolinic acid], the pest or weed control at 140 g/ha was 0 to 29%.

Same assay, conditions: post-emergence, 336 h, canada thistle (Cirsium arvense), 14 Days After Application, 140 g ai/ha, read-out: Visual Growth Reduction (%) CIRAR
For COC(=O)c1nc(-c2ccc(Cl)c(C(C)F)c2Cl)ccc1Cl (stereo not drawn) [F282, Methyl 3-chloro-6-(2,4-dichloro-3-(1-fluoroethyl)phenyl) picolinate], the pest or weed control at 140 g/ha was 60 to 74%. COC(=O)c1nc(-c2ccc(C(F)(F)F)cc2C)c(F)cc1F [F376, Methyl 3,5-difluoro-6-(2-methyl-4-(trifluoromethyl)phenyl)picolinate] was tested, and the pest or weed control at 140 g/ha was 60 to 74%. Work on O=C(O)c1nc(-c2cccc3c2OC(F)(F)O3)ccc1Cl [F255, 3-Chloro-6-(2,2-difluorobenzo[d][1,3]dioxol-4-yl)picolinic acid] yielded a pest or weed control at 140 g/ha of 0 to 29%.

Same assay, conditions: post-emergence, 336 h, crabgrass (Digitaria sanguinalis), 14 Days After Application, 140 g ai/ha, read-out: Visual Growth Reduction (%) DIGSA
COC(=O)c1nc(-c2ccc(Cl)c(C(C)F)c2Cl)ccc1Cl (stereo not drawn) [F282, Methyl 3-chloro-6-(2,4-dichloro-3-(1-fluoroethyl)phenyl) picolinate] gave a pest or weed control at 140 g/ha of 0 to 29%. With COC(=O)c1nc(-c2ccc(C(F)(F)F)cc2C)c(F)cc1F [F376, Methyl 3,5-difluoro-6-(2-methyl-4-(trifluoromethyl)phenyl)picolinate] the pest or weed control at 140 g/ha was 60 to 74%. Compound O=C(O)c1nc(-c2cccc3c2OC(F)(F)O3)ccc1Cl [F255, 3-Chloro-6-(2,2-difluorobenzo[d][1,3]dioxol-4-yl)picolinic acid] has a pest or weed control at 140 g/ha of 0 to 29%.

Same assay, conditions: post-emergence, 336 h, lambsquarters (Chenopodium album), 14 Days After Application, 140 g ai/ha, read-out: Visual Growth Reduction (%) CHEAL
COC(=O)c1nc(-c2ccc(Cl)c(C(C)F)c2Cl)ccc1Cl (stereo not drawn) [F282, Methyl 3-chloro-6-(2,4-dichloro-3-(1-fluoroethyl)phenyl) picolinate] gave a pest or weed control at 140 g/ha of 85 to 94%. Work on COC(=O)c1nc(-c2ccc(C(F)(F)F)cc2C)c(F)cc1F [F376, Methyl 3,5-difluoro-6-(2-methyl-4-(trifluoromethyl)phenyl)picolinate] yielded a pest or weed control at 140 g/ha of 85 to 94%. Compound O=C(O)c1nc(-c2cccc3c2OC(F)(F)O3)ccc1Cl [F255, 3-Chloro-6-(2,2-difluorobenzo[d][1,3]dioxol-4-yl)picolinic acid] has a pest or weed control at 140 g/ha of 0 to 29%.

Same assay, conditions: post-emergence, 336 h, redroot pigweed (Amaranthus retroflexus), 14 Days After Application, 140 g ai/ha, read-out: Visual Growth Reduction (%) AMARE
Work on COC(=O)c1nc(-c2ccc(Cl)c(C(C)F)c2Cl)ccc1Cl (stereo not drawn) [F282, Methyl 3-chloro-6-(2,4-dichloro-3-(1-fluoroethyl)phenyl) picolinate] yielded a pest or weed control at 140 g/ha of 45 to 59%. Compound COC(=O)c1nc(-c2ccc(C(F)(F)F)cc2C)c(F)cc1F [F376, Methyl 3,5-difluoro-6-(2-methyl-4-(trifluoromethyl)phenyl)picolinate] has a pest or weed control at 140 g/ha of 95 to 100%. O=C(O)c1nc(-c2cccc3c2OC(F)(F)O3)ccc1Cl [F255, 3-Chloro-6-(2,2-difluorobenzo[d][1,3]dioxol-4-yl)picolinic acid] gave a pest or weed control at 140 g/ha of 0 to 29%.

Same assay, conditions: post-emergence, 336 h, wild oat (Avena fatua), 14 Days After Application, 140 g ai/ha, read-out: Visual Growth Reduction (%) AVEFA
COC(=O)c1nc(-c2ccc(Cl)c(C(C)F)c2Cl)ccc1Cl (stereo not drawn) [F282, Methyl 3-chloro-6-(2,4-dichloro-3-(1-fluoroethyl)phenyl) picolinate] gave a pest or weed control at 140 g/ha of 0 to 29%. COC(=O)c1nc(-c2ccc(C(F)(F)F)cc2C)c(F)cc1F [F376, Methyl 3,5-difluoro-6-(2-methyl-4-(trifluoromethyl)phenyl)picolinate] showed a pest or weed control at 140 g/ha of 0 to 29%. Compound O=C(O)c1nc(-c2cccc3c2OC(F)(F)O3)ccc1Cl [F255, 3-Chloro-6-(2,2-difluorobenzo[d][1,3]dioxol-4-yl)picolinic acid] has a pest or weed control at 140 g/ha of 0 to 29%.

Same assay, conditions: post-emergence, 336 h, yellow nutsedge (Cyperus esculentus), 14 Days After Application, 140 g ai/ha, read-out: Visual Growth Reduction (%) CYPES
COC(=O)c1nc(-c2ccc(Cl)c(C(C)F)c2Cl)ccc1Cl (stereo not drawn) [F282, Methyl 3-chloro-6-(2,4-dichloro-3-(1-fluoroethyl)phenyl) picolinate] showed a pest or weed control at 140 g/ha of 0 to 29%. COC(=O)c1nc(-c2ccc(C(F)(F)F)cc2C)c(F)cc1F [F376, Methyl 3,5-difluoro-6-(2-methyl-4-(trifluoromethyl)phenyl)picolinate] was tested, and the pest or weed control at 140 g/ha was 0 to 29%. With O=C(O)c1nc(-c2cccc3c2OC(F)(F)O3)ccc1Cl [F255, 3-Chloro-6-(2,2-difluorobenzo[d][1,3]dioxol-4-yl)picolinic acid] the pest or weed control at 140 g/ha was 0 to 29%.
